Reference: patent US9611277B2 (Janssen Pharmaceutica NV, priority 2013, dated 2017)

Tests used:
rat orexin 1 receptor = rat orexin 1 receptor (Rattus norvegicus, UniProt P56718); experiment: Rat orexin 1 receptor radioligand binding; settings: rat orexin 1 receptor; averages of 2-20 runs; read-out: rOX1 Ki
Procedure, shortened: (§1)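 Ki values derive from one-site competition IC50s corrected with the radioligand's predetermined Kd, triplicates per run, averaged over 2-20 runs. Cell homogenates (rat or human OX1R) compete against [^3H]-thiazolyl-oxadiazolyl-pyrrolidine methanone in PBS; 10 μM almorexant sets nonspecific binding; scintillation counting after washing.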

human orexin 2 receptor = human orexin 2 receptor (Homo sapiens (Human), UniProt O43614); experiment: Human orexin 2 receptor radioligand binding; settings: human orexin 2 receptor; averages of 2-20 runs; read-out: hOX2 Ki
Sequence of human orexin 2 receptor (O43614 whole entry): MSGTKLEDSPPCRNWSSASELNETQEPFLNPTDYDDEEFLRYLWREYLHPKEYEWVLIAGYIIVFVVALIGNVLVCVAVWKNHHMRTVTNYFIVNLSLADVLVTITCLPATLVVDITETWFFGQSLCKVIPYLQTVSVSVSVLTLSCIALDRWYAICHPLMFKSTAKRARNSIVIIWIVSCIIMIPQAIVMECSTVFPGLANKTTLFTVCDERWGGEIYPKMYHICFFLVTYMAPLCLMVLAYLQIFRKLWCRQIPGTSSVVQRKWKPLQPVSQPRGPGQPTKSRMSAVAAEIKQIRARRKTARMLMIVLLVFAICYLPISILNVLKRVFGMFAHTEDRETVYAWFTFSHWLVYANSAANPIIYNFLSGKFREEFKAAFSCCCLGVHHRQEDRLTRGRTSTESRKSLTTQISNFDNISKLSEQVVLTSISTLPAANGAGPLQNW
Procedure, shortened: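 Ki derived from one-site competition IC50 using predetermined Kd of [3H]-EMPA, triplicate points, 2-20 runs averaged. Binding done on homogenized HEK293 cells stably expressing human orexin 2 receptor, DMSO ≤0.1%, with 10 μM almorexant defining nonspecific binding; filtered, washed, scintillation counted.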

human orexin 1 receptor = human orexin 1 receptor (Homo sapiens, UniProt O43613); experiment: Human orexin 1 receptor radioligand binding; settings: human orexin 1 receptor; averages of 2-20 runs; read-out: hOX1 Ki
Procedure, shortened: as §1

Row | Ki (rat orexin 1 receptor) [nM] | Ki (human orexin 2 receptor) [nM] | Ki (human orexin 1 receptor) [nM] | SMILES
1 | 8 | 459 | 10 | O=C(c1ccccc1-n1nccn1)N1C[C@H]2C[C@@H](Oc3ccc(Cl)cn3)[C@@H]1C2 [Example 112, (2-(2H-1,2,3-triazol-2-yl)phenyl)((1S,4R,6R)-6-((5-chloropyridin-2-yl)oxy)-2-azabicyclo[2.2.1]heptan-2-yl)methanone]
2 | 17 | 984 | 14 | O=C(c1cc(F)ccc1-n1nccn1)N1C[C@H]2C[C@@H](Oc3ccc(Cl)cn3)[C@@H]1C2 [Example 113, ((1S,4R,6R)-6-((5-chloropyridin-2-yl)oxy)-2-azabicyclo[2.2.1]heptan-2-yl)(5-fluoro-2-(2H-1,2,3-triazol-2-yl)phenyl)methanone]
3 | 11 | 668 | 23 | Cc1ccc(-n2nccn2)c(C(=O)N2C[C@H]3C[C@@H](Oc4ccc(Cl)cn4)[C@@H]2C3)n1 [Example 114, ((1S,4R,6R)-6-((5-chloropyridin-2-yl)oxy)-2-azabicyclo[2.2.1]heptan-2-yl)(6-methyl-3-(2H-1,2,3-triazol-2-yl)pyridin-2-yl)methanone]
4 | 7 | 852 | 8 | O=C(c1cccc(F)c1-c1ncccn1)N1C[C@H]2C[C@@H](Oc3ccc(Cl)cn3)[C@@H]1C2 [Example 115, ((1S,4R,6R)-6-((5-chloropyridin-2-yl)oxy)-2-azabicyclo[2.2.1]heptan-2-yl)(3-fluoro-2-(pyrimidin-2-yl)phenyl)methanone]
5 | 11 | 939 | 12 | O=C(c1ccccc1-c1ncc(F)cn1)N1C[C@H]2C[C@@H](Oc3ccc(Cl)cn3)[C@@H]1C2 [Example 116, ((1S,4R,6R)-6-((5-chloropyridin-2-yl)oxy)-2-azabicyclo[2.2.1]heptan-2-yl)(2-(5-fluoropyrimidin-2-yl)phenyl)methanone]
6 | 16 | 1600 | 28 | O=C(c1cccc(F)c1-c1ncc(F)cn1)N1C[C@H]2C[C@@H](Oc3ccc(Cl)cn3)[C@@H]1C2 [Example 117, ((1S,4R,6R)-6-((5-chloropyridin-2-yl)oxy)-2-azabicyclo[2.2.1]heptan-2-yl)(3-fluoro-2-(5-fluoropyrimidin-2-yl)phenyl)methanone]
7 | 133 | 1600 | 105 | O=C(c1ccccc1-n1nccn1)N1C[C@H]2C[C@@H](Oc3ccc(F)cn3)[C@@H]1C2 [Example 118, (2-(2H-1,2,3-triazol-2-yl)phenyl)((1S,4R,6R)-6-((5-fluoropyridin-2-yl)oxy)-2-azabicyclo[2.2.1]heptan-2-yl)methanone]
8 | 60 | 4100 | 111 | O=C(c1cccc(F)c1-c1ncccn1)N1C[C@H]2C[C@@H](Oc3ccc(F)cn3)[C@@H]1C2 [Example 120, (3-fluoro-2-(pyrimidin-2-yl)phenyl)((1S,4R,6R)-6-((5-fluoropyridin-2-yl)oxy)-2-azabicyclo[2.2.1]heptan-2-yl)methanone]
9 | 10 | 50 | 11 | O=C(c1ccccc1-n1nccn1)N1C[C@H]2C[C@@H](Oc3ccc(C(F)F)cn3)[C@@H]1C2 [Example 121, (2-(2H-1,2,3-triazol-2-yl)phenyl)((1S,4R,6R)-6-((5-(difluoromethyl)pyridin-2-yl)oxy)-2-azabicyclo[2.2.1]heptan-2-yl)methanone]
10 | 28 | 218 | 30 | Cc1ccc(-n2nccn2)c(C(=O)N2C[C@H]3C[C@@H](Oc4ccc(C(F)F)cn4)[C@@H]2C3)n1 [Example 122, ((1S,4R,6R)-6-((5-(difluoromethyl)pyridin-2-yl)oxy)-2-azabicyclo[2.2.1]heptan-2-yl)(6-methyl-3-(2H-1,2,3-triazol-2-yl)pyridin-2-yl)methanone]
11 | 11 | 149 | 10 | O=C(c1cccc(F)c1-c1ncccn1)N1C[C@H]2C[C@@H](Oc3ccc(C(F)F)cn3)[C@@H]1C2 [Example 123, ((1S,4R,6R)-6-((5-(difluoromethyl)pyridin-2-yl)oxy)-2-azabicyclo[2.2.1]heptan-2-yl)(3-fluoro-2-(pyrimidin-2-yl)phenyl)methanone]
12 | 200 | 4500 | 109 | O=C(c1cc(F)ccc1-n1nccn1)N1C[C@H]2C[C@@H](Oc3cnc(C(F)(F)F)cn3)[C@@H]1C2 [Example 124, (5-fluoro-2-(2H-1,2,3-triazol-2-yl)phenyl)((1S,4R,6R)-6-((5-(trifluoromethyl)pyrazin-2-yl)oxy)-2-azabicyclo[2.2.1]heptan-2-yl)methanone]
13 | 220 | 5500 | 88 | Cc1ccc(-n2nccn2)c(C(=O)N2C[C@H]3C[C@@H](Oc4cnc(C(F)(F)F)cn4)[C@@H]2C3)n1 [Example 125, (6-methyl-3-(2H-1,2,3-triazol-2-yl)pyridin-2-yl)((1S,4R,6R)-6-((5-(trifluoromethyl)pyrazin-2-yl)oxy)-2-azabicyclo[2.2.1]heptan-2-yl)methanone]
14 | 27 | 4200 | 22 | O=C(c1cccc(F)c1-c1ncccn1)N1C[C@H]2C[C@@H](Oc3cnc(C(F)(F)F)cn3)[C@@H]1C2 [Example 126, (3-fluoro-2-(pyrimidin-2-yl)phenyl)((1S,4R,6R)-6-((5-(trifluoromethyl)pyrazin-2-yl)oxy)-2-azabicyclo[2.2.1]heptan-2-yl)methanone]
15 | 116 | > 10000 | 143 | O=C(c1ccc(F)cc1-c1ncccn1)N1C[C@H]2C[C@@H](Oc3cnc(C(F)(F)F)cn3)[C@@H]1C2 [Example 127, (4-fluoro-2-(pyrimidin-2-yl)phenyl)((1S,4R,6R)-6-((5-(trifluoromethyl)pyrazin-2-yl)oxy)-2-azabicyclo[2.2.1]heptan-2-yl)methanone]
16 | 69 | 3800 | 62 | O=C(c1cc(F)ccc1-c1ncccn1)N1C[C@H]2C[C@@H](Oc3cnc(C(F)(F)F)cn3)[C@@H]1C2 [Example 128, (5-fluoro-2-(pyrimidin-2-yl)phenyl)((1S,4R,6R)-6-((5-(trifluoromethyl)pyrazin-2-yl)oxy)-2-azabicyclo[2.2.1]heptan-2-yl)methanone]
17 | 53 | 4400 | 47 | O=C(c1c(F)cccc1-c1ncccn1)N1C[C@H]2C[C@@H](Oc3cnc(C(F)(F)F)cn3)[C@@H]1C2 [Example 129, (2-fluoro-6-(pyrimidin-2-yl)phenyl)((1S,4R,6R)-6-((5-(trifluoromethyl)pyrazin-2-yl)oxy)-2-azabicyclo[2.2.1]heptan-2-yl)methanone]
18 | 29 | 3500 | 27 | O=C(c1ccccc1-c1ncccn1)N1C[C@H]2C[C@@H](Oc3cnc(C(F)(F)F)cn3)[C@@H]1C2 [Example 130, (2-(pyrimidin-2-yl)phenyl)((1S,4R,6R)-6-((5-(trifluoromethyl)pyrazin-2-yl)oxy)-2-azabicyclo[2.2.1]heptan-2-yl)methanone]
19 | 140 | 2200 | 132 | Cc1cnc(O[C@@H]2C[C@H]3C[C@@H]2N(C(=O)c2ccccc2-n2nccn2)C3)nc1 [Example 131, (2-(2H-1,2,3-triazol-2-yl)phenyl)((1S,4R,6R)-6-((5-methylpyrimidin-2-yl)oxy)-2-azabicyclo[2.2.1]heptan-2-yl)methanone]
20 | 60 | 4200 | 102 | Cc1cnc(O[C@@H]2C[C@H]3C[C@@H]2N(C(=O)c2cccc(F)c2-c2ncccn2)C3)nc1 [Example 133, (3-fluoro-2-(pyrimidin-2-yl)phenyl)((1S,4R,6R)-6-((5-methylpyrimidin-2-yl)oxy)-2-azabicyclo[2.2.1]heptan-2-yl)methanone]
21 | 61 | 1200 | 100 | CCc1cnc(O[C@@H]2C[C@H]3C[C@@H]2N(C(=O)c2ccccc2-n2nccn2)C3)nc1 [Example 135, (2-(2H-1,2,3-triazol-2-yl)phenyl)((1S,4R,6R)-6-((5-ethylpyrimidin-2-yl)oxy)-2-azabicyclo[2.2.1]heptan-2-yl)methanone]
22 | 39 | 1700 | 65 | CCc1cnc(O[C@@H]2C[C@H]3C[C@@H]2N(C(=O)c2cccc(F)c2-c2ncccn2)C3)nc1 [Example 137, ((1S,4R,6R)-6-((5-ethylpyrimidin-2-yl)oxy)-2-azabicyclo[2.2.1]heptan-2-yl)(3-fluoro-2-(pyrimidin-2-yl)phenyl)methanone]
23 | 208 | 3700 | 150 | O=C(c1ccccc1-n1nccn1)N1C[C@H]2C[C@@H](Oc3ccc(C(F)(F)F)nn3)[C@@H]1C2 [Example 139, (2-(2H-1,2,3-triazol-2-yl)phenyl)((1S,4R,6R)-6-((6-(trifluoromethyl)pyridazin-3-yl)oxy)-2-azabicyclo[2.2.1]heptan-2-yl)methanone]
24 | 208 | > 10000 | 348 | O=C(c1cccc(F)c1-c1ncccn1)N1C[C@H]2C[C@@H](Oc3ccc(C(F)(F)F)nn3)[C@@H]1C2 [Example 141, (3-fluoro-2-(pyrimidin-2-yl)phenyl)((1S,4R,6R)-6-((6-(trifluoromethyl)pyridazin-3-yl)oxy)-2-azabicyclo[2.2.1]heptan-2-yl)methanone]
